Drawing on ChEMBL document CHEMBL4819038, “Structure based design and synthesis of novel Toll-like Receptor 2 (TLR 2) lipid antagonists” (Bioorg Med Chem Lett, 2021), this text covers IC50 and Stabilty for 16 compounds.

Each structure is given as a SMILES string.

As usually defined, the IC50 is the midpoint of a concentration-inhibition curve.

In data set [1] the target is T1, Toll-like receptor 2 (Homo sapiens, UniProt O60603). In words: Antagonist activity at human TLR2 expressed in HEK-Blue cells assessed as inhibition of Pam2CSK4-induced TLR2/TLR6 activation by measuring decrease in NFkappaB activation pretreated for 2 hrs followed by incubation with agonist for 18 hrs by SEAP assay. The class given is cell-based, HEK-Blue hTLR2.
T1 sequence (O60603 whole entry): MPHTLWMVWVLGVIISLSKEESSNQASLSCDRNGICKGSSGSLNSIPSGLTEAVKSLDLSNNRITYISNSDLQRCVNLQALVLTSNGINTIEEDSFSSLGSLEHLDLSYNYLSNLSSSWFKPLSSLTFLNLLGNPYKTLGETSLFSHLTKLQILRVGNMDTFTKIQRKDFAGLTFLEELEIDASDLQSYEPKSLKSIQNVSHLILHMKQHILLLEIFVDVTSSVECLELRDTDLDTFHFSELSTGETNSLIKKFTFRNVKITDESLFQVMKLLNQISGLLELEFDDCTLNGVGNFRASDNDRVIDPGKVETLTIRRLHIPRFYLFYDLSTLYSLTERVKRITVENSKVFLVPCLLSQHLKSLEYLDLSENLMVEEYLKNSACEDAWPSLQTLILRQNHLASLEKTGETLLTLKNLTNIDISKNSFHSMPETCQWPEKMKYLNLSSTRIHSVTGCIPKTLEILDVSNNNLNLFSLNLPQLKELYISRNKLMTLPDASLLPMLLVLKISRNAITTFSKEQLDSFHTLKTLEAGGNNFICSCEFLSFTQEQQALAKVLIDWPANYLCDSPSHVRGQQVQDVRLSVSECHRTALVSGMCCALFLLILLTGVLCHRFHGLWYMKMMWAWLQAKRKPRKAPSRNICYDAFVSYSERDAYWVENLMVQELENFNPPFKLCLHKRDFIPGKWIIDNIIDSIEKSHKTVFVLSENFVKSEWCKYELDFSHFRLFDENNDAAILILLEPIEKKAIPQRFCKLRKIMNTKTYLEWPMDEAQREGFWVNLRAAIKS
Data set [2] has as its target T1, Toll-like receptor 2. As to the kind of experiment: Antagonist activity at human TLR2 expressed in HEK-Blue cells assessed as inhibition of Pam3CSK4-induced TLR2/TLR1 activation by measuring decrease in NFkappaB activation pretreated for 2 hrs followed by incubation with agonist for 18 hrs by SEAP assay. The class given is cell-based, HEK-Blue hTLR2.
A short description of data set [3]: Stability of the compound in PBS buffer/EtOH. The class given is physicochemical.
Data set [4] is described as follows: Stability of the compound in simulated gastric fluid. The class given is ADME. Conditions: simulated gi fluid.

As to `CCCCCCCCCCCCCCOCC(CNC(=O)C1(NC(=O)OCc2ccccc2)CCNCC1)OCCCCCCCCCCCCCC` (configuration not stated), the IC50 at Toll-like receptor 2 [1] is greater than 30 µM; at Toll-like receptor 2 [2], 2.6 µM.
For `CCCCCCCCCCCCCCOCC(CNC(=O)[C@H](CCCCN)NC(=O)OCC1c2ccccc2-c2ccccc21)OCCCCCCCCCCCCCC` (some centres not stated), in that order: greater than 30 µM and 1.6 µM.
For `CCCCCCCOCCNC(=O)[C@H](CCCCN)NCc1ccccc1`, in that order: 13.7 µM and 22.6 µM.
On to `CCCCCCCCCCCCCCOCC(CNC(=O)[C@@H](CCCCN)NC(=O)OCc1ccccc1)OCCCCCCCCCCCCCC` (some centres not stated), for which the IC50 on Toll-like receptor 2 [1] is greater than 30 µM; at Toll-like receptor 2 [2] it was 2.3 µM.
For `CCCCCCCCCCCCCCOCC(CNC(=O)CC[C@H](NC(=O)OCC1c2ccccc2-c2ccccc21)C(=O)O)OCCCCCCCCCCCCCC` (some centres not stated), in that order: 13.3 µM and 8.7 µM.
Turning to `CCCCCCCCCCCCCCOCC(CNC(=O)c1cccc(C2CCNCC2)c1)OCCCCCCCCCCCCCC.Cl` (configuration not stated), the Stabilty in data set [3] and in data set [4] was greater than 1 h each time.
In the case of `CCCCCCCCCCCCCCOCC(CNC(=O)[C@H]1CCCN1)OCCCCCCCCCCCCCC` (some centres not stated), the values for the IC50 on Toll-like receptor 2 [1] and at Toll-like receptor 2 [2] were greater than 30 µM and 14.3 µM, respectively.
Take `CCCCCCCCCCCCCCOCC(CNC(=O)[C@@H](CCCCN)NCc1ccccc1)OCCCCCCCCCCCCCC.Cl` (some centres not stated): the Stabilty in data set [3] and in data set [4] was greater than 1 h throughout.
Regarding `CCCCCCCCCCCCCCNC(=O)[C@H](CCCCN)NCc1ccccc1`, the IC50 came to 11.3 µM at Toll-like receptor 2 [1] and 14.5 µM on Toll-like receptor 2 [2].
Turning to `CCCCCCCCCCCCCCOCC(CNC(=O)[C@H](CCCCN)NCc1ccc(-c2ccccc2)cc1)OCCCCCCCCCCCCCC` (some centres not stated), the IC50 on Toll-like receptor 2 [1] stood at 27.9 µM; at Toll-like receptor 2 [2] it was 2.8 µM.
For `CCCCCCCCCCCCCCOCC(CNC(=O)C(CC1CCNCC1)NC(=O)OCC1c2ccccc2-c2ccccc21)OCCCCCCCCCCCCCC` (configuration not stated), in that order: 16.7 µM and 1.8 µM.
Consider `CCCCC/C=C\CCCCCCCOCC(CNC(=O)c1cccc(C2CCNCC2)c1)OCCCCCCC/C=C\CCCCC` (configuration not stated), for which the results for the IC50 at Toll-like receptor 2 [1] and on Toll-like receptor 2 [2] were 16.9 µM and 18.5 µM, respectively.
The matching figures for `CCCCCCCCCCCCCCOCC(CNC(=O)CCCCCN)OCCCCCCCCCCCCCC` (configuration not stated): greater than 30 µM and greater than 20 µM.
Regarding `CCCCCCCCCCCCCCOCC(CNC(=O)[C@H](CCCCN)NCc1ccc(F)cc1)OCCCCCCCCCCCCCC` (some centres not stated), the results for the IC50 on Toll-like receptor 2 [1] and on Toll-like receptor 2 [2] were greater than 30 µM and 2.9 µM, respectively.
As for `CCCCCCCOC(CNC(=O)[C@H](CCCCN)NCc1ccccc1)COC` (some centres not stated), the IC50 on Toll-like receptor 2 [1] and at Toll-like receptor 2 [2] was greater than 30 µM each time.
As for `CCCCC/C=C\C/C=C\CCCCCCCCOCC(CNC(=O)c1cccc(C2CCNCC2)c1)OCCCCCCCC/C=C\C/C=C\CCCCC` (configuration not stated), the IC50 on Toll-like receptor 2 [1] worked out at 16.1 µM; at Toll-like receptor 2 [2], 3.3 µM.
